Assay: RP, Agilent ZORBAX Eclipse Plus C18, 150 × 2.1 mm, 3.5 µm, 40 °C, 0.3 mL/min, estimated dead time 1.1 min; A: water + 0.1% formic acid; B: acetonitrile + 0.1% formic acid; gradient (min/%B) 0/2 1/2 2/20 16.5/98 22/98
Settings: stereoisomer not certain

LC retention time | Structure (SMILES)
8.43 min | Nc1ccccc1C[P+](c1ccccc1)(c1ccccc1)c1ccccc1
4.25 min | Cc1ncsc1CCO
8.3 min | COC(=O)CCCC[P+](c1ccccc1)(c1ccccc1)c1ccccc1
8.63 min | c1ccc([P+](c2ccccc2)(c2ccccc2)c2ccccc2)cc1
10.4 min | CC1(C)CCCC(C)(C)N1O
8.87 min | NC(=O)N1c2ccccc2C=Cc2ccccc21
8.43 min | CNCCC(Oc1cccc2ccccc12)c1cccs1 (configuration not stated)
8.52 min | [O-]N(O)c1ccc(C[P+](c2ccccc2)(c2ccccc2)c2ccccc2)cc1
11.1 min | CCCCP(=O)(CCCC)CCCC
3.23 min | Cc1c[nH]c(=O)[nH]c1=O
8.4 min | CC12CCC(=O)C=C1CCC1C2C(=O)CC2(C)C1CCC2(O)C(=O)CO (configuration not stated)
13.7 min | N#CC(C(=O)O)=C(c1ccccc1)c1ccccc1
8.37 min | O=C(c1ccc(O)cc1O)c1ccc(O)cc1O
5.55 min | Nc1ccc(S(=O)(=O)Nc2ccccn2)cc1
5.7 min | COc1cc(C(=O)O)cc(OC)c1O
2.36 min | Cn1cnc2nc[nH]c2c1=N
12.2 min | CSc1nc2ccccc2s1
5.37 min | CC1(C)SC2C(NC(=O)C(N)c3ccccc3)C(=O)N2C1C(=O)O (configuration not stated)
10.9 min | COc1ccc2cc(C(C)C(=O)O)ccc2c1 (configuration not stated)
6.66 min | NC(=O)N1c2ccccc2C(O)C(O)c2ccccc21 (configuration not stated)
8.21 min | COCC(C)N(C(=O)C(=O)O)c1c(C)csc1C (configuration not stated)
5.62 min | CCN1CCCC1CNC(=O)c1cc(S(=O)(=O)CC)c(N)cc1O (configuration not stated)
5.34 min | Oc1cccc2n[nH]nc12
6.51 min | COc1ccc(NC(C)=O)cc1
8.34 min | CCNC(=O)c1cccc(C)c1

LC retention time | Structure (SMILES)
4.73 min | Cn1c(=O)c2ncn(C)c2n(C)c1=O
5.59 min | CC(=O)Nc1c(C)n(C)n(-c2ccccc2)c1=O
8.07 min | C[N+](C)([O-])CCOC(c1ccccc1)c1ccccc1
7.36 min | CCN(CC)C(=O)c1cccc(C(=O)O)c1
11.1 min | C#CC1(O)CCC2C3CCC4=C(CCC(=O)C4)C3CCC21C (configuration not stated)
2.08 min | O=c1[nH]c(=O)c2[nH]c(=O)[nH]c2[nH]1
6.26 min | Cc1cc(=O)n(-c2ccccc2)n1C
3.47 min | CC1(C)NC(=O)NC1=O
4.75 min | NCC(O)COc1ccccc1 (configuration not stated)
8.85 min | CC(=O)OCCCC[P+](c1ccccc1)(c1ccccc1)c1ccccc1
4.82 min | CNc1c(C)n(C)n(-c2ccccc2)c1=O
4.41 min | Cc1cc(N)no1
4.47 min | CN(C)N=Nc1nc[nH]c1C(N)=O
4.58 min | COC(=O)C1CCC(=O)N1 (configuration not stated)
5.04 min | O=S(=O)(O)c1ccc2nc(-c3ccccc3)[nH]c2c1
6.46 min | COc1ccc2nc(S(=O)Cc3ncc(C)c(OC)c3C)[nH]c2c1 (configuration not stated)
9.54 min | Cc1c(C(C)C)c(=O)n(-c2ccccc2)n1C
8.82 min | O=C(O)c1cccc2c(=O)c3ccccc3[nH]c12
13.7 min | CC(=O)OC1(C(C)=O)CCC2C3CC(C)C4=CC(=O)CCC4(C)C3CCC21C (configuration not stated)
11.1 min | Cc1ccccc1NC(=O)Nc1ccccc1C
4.53 min | Cc1cn(C2CC(O)C(CO)O2)c(=O)[nH]c1=O (configuration not stated)
9.22 min | O=C(O)c1cc(N=Nc2ccc(S(=O)(=O)Nc3ccccn3)cc2)ccc1O
4.31 min | O=c1[nH]cnc2c1cnn2C1OC(CO)C(O)C1O (configuration not stated)
8.01 min | Cc1cc2n[nH]nc2cc1C
5.96 min | CCCC(=O)Nc1ccc(OCC(O)CNC(C)C)c(C(C)=O)c1 (configuration not stated)

The next lines start with the compound.

Structure (SMILES) | LC retention time
CC(=O)C1(O)CCC2C3CCC4=CC(=O)CCC4(C)C3CCC21C (configuration not stated) | 11.8 min
CCOC(=O)C(CCc1ccccc1)NC(C)C(=O)N1C(C(=O)O)CC2CCCC21 (configuration not stated) | 7.85 min
CC12CCC(=O)C=C1CCC1C2CCC2(C)C1CCC2(C)O (configuration not stated) | 11.6 min
CCCCCCCCC=CCCCCCCCC[N+](C)(C)C | 13.7 min
CNC(=O)C(=NOC)c1ccccc1COc1cc(C)ccc1C | 13.2 min
CN1C(C)(C)CC(OC(=O)CCCCCCCCC(=O)OC2CC(C)(C)N(C)C(C)(C)C2)CC1(C)C | 6.48 min
CCc1cccc(C)c1N(C(=O)CS(=O)(=O)O)C(C)COC (configuration not stated) | 8.25 min
COc1ccccc1NC(C)=O | 7.37 min
C[P+](c1ccccc1)(c1ccccc1)c1ccccc1 | 7.19 min
CC(=O)Nc1cc(NC(C)=O)cc(C(=O)O)c1 | 5.22 min
CC(C)(C)NCC(O)c1cc(O)cc(O)c1 (configuration not stated) | 4.55 min
COCCCOc1cc(CC(CC(N)C(O)CC(C(=O)NCC(C)(C)C(N)=O)C(C)C)C(C)C)ccc1OC (configuration not stated) | 8.2 min
O=C(Nc1ccccc1)Nc1ccccc1 | 10.8 min
CSc1ncnc2c1ncn2C1OC(CO)C(O)C1O (configuration not stated) | 5.67 min
Oc1ccc(Nc2ccccc2)cc1 | 10 min
CCC(CCC(C)O)COC(=O)c1ccccc1O (configuration not stated) | 12.9 min
CCOC(=O)C(C#N)=C(c1ccccc1)c1ccccc1 | 13.6 min
CC(O)CCCCn1c(=O)c2c(ncn2C)n(C)c1=O (configuration not stated) | 6.42 min
CCCCCCCCCCCCOCC[N+](C)(C)Cc1ccccc1 | 12.7 min
COC(=O)Nc1ccccc1 | 8.47 min
Cn1cnc2c1c(=O)[nH]c(=O)n2C | 5.24 min
Nc1nc(NC2CC2)c2ncn(C3C=CC(CO)C3)c2n1 (configuration not stated) | 5.09 min
C[N+](C)(C)c1ccccc1 | 2.83 min
c1ccc2c(c1)Nc1ccccc1S2 | 13.1 min

Structure (SMILES) | LC retention time
CNC(=C[N+](=O)[O-])NCCS(=O)Cc1ccc(CN(C)C)o1 (configuration not stated) | 2.94 min
C#CC1(O)CCC2C3CCC4=CC(=O)CCC4(C)C3CCC21C (configuration not stated) | 11.7 min
Cc1ccnc2c1NC(=O)c1cccnc1N2C1CC1 | 7.3 min
CCNCC(=O)Nc1c(C)cccc1C | 5.35 min
CNCC1CCCCC1(O)c1cccc(OC)c1 (configuration not stated) | 6.25 min
CC12CCC3C4CCC(=O)C=C4CCC3C1CCC2O (configuration not stated) | 10.4 min
Cc1ccccc1N=C(N)N=C(N)N | 4.67 min
CC(C)(C)CC(C)(C)c1ccc(OCCOCC[N+](C)(C)Cc2ccccc2)cc1 | 11.5 min
CCC1OC(=O)C(C)C(OC2CC(C)(OC)C(O)C(C)O2)C(C)C(OC2OC(C)CC(N(C)C)C2O)C(C)(OC)CC(C)C(=O)C(C)C(O)C1(C)O (configuration not stated) | 8.86 min
Cc1cc2nc3[nH]c(=O)[nH]c(=O)c3nc2cc1C | 7.07 min
CCC1(c2ccccc2)C(=O)NCNC1=O | 6.35 min
COC(=O)Nc1cccc(N)c1 | 4.29 min
CC12CCC3c4ccc(OCc5ccccc5)cc4CCC3C1CC(O)C2O (configuration not stated) | 13.3 min
NC(=O)CN1CCCC1=O | 2.62 min
CC12CCC(=O)C=C1CCC1C2CCC2(C)C(O)CCC12 (configuration not stated) | 11 min
COCCOC(=O)Nc1ccc(C)c(NC(=O)OCCOC)c1 | 8.32 min
CCOP(=S)(OCC)Oc1cc(C)nc(C(C)C)n1 | 14.5 min
COP(=O)(NC(C)=O)SC (configuration not stated) | 4.5 min
CCCCCCCCCCCCOC(=O)c1cc(O)c(O)c(O)c1 | 16 min
CCN(CC)C(=O)C(C)Oc1cccc2ccccc12 (configuration not stated) | 12.6 min
O=C1c2ccccc2C(=O)C1c1ccccc1 | 14.2 min
CCCCCCCCCCCCCCCC[N+](C)(C)C | 12.8 min
COc1ccc(C(=O)c2ccc(OC)cc2O)c(O)c1 | 12.7 min
NC(Cc1ccc(O)cc1)C(=O)O (configuration not stated) | 2.61 min

Structure (SMILES) | LC retention time
CN(C)C1C(=O)C(C(N)=O)=C(O)C2(O)C(=O)C3=C(O)c4c(O)cccc4C(C)(O)C3CC12 (configuration not stated) | 5.46 min
CCCCCCCCCCCCCC[N+](C)(C)CCCCCCCCCCCCCC | 16.9 min
O=P(O)(c1ccccc1)c1ccccc1 | 7.24 min
COC1=C(C)C(=O)C2=C(C1=O)C(COC(N)=O)C1(OC)C3NC3CN21 (configuration not stated) | 7.05 min
CC(=O)Nc1ccc(C(=O)O)cc1 | 5.59 min
c1ncc2[nH]cnc2n1 | 2.57 min
CC(C)c1ccccc1OP(=O)(Oc1ccccc1)Oc1ccccc1 | 15.8 min
O=[N+]([O-])c1ccc(O)c([N+](=O)[O-])c1 | 9.21 min
O=C(NCc1ccccc1)NC1CCCCC1 | 10.3 min
CCCN(CCC)C(=O)SCc1ccccc1 | 15.5 min
CCCCCCCCCCC(C(=O)OCCCCCC)[N+](C)(C)Cc1ccccc1 (configuration not stated) | 13.6 min
CC12CC=C3c4ccc(O)cc4CCC3C1CCC2(O)CC#N (configuration not stated) | 9.96 min
CNC(=O)Oc1cccc2ccccc12 | 10.1 min
COC12C(COC(N)=O)C3=C(C(=O)C(C)=C(N)C3=O)N1CC1NC12 (configuration not stated) | 5.59 min
CCCCCCCCCCCCCCCCCC[N+](C)(C)C | 14 min
COCCOCCOCCOCCOC | 6.01 min
COP(=O)(OC)OC | 4.97 min
CNNCc1ccc(C(=O)NC(C)C)cc1 | 4.91 min
CC(C(=O)O)c1cccc(C(=O)c2ccccc2)c1 (configuration not stated) | 10.9 min
Cc1cc(C2CCCCC2)n(O)c(=O)c1 | 4.49 min
C=Cc1ccc(C[N+](C)(C)C)cc1 | 5.4 min
Nc1nc2c(ncn2C2OC(CO)C(O)C2O)c(=O)[nH]1 (configuration not stated) | 3.15 min
Cc1ccc(N)cc1N | 2.14 min
CC(C)CC(C)Nc1ccc(Nc2ccccc2)cc1 (configuration not stated) | 9.19 min

— the RepoRT retention time repository (doi:10.1016/j.chroma.2015.11.014)
